Patent US20250154169A1, “COMPOUNDS AND METHODS FOR MODULATING SPLICING” (REMIX THERAPEUTICS INC., priority 2021, published 2025)
pIC50: −log10 of the molar value. Read-outs that look alike come from different tables or passages of the source.

Assays:
Assay type in all cases: cell-based, human
HTT mRNA [1] = experiment: Splicing RT-qPCR assay, HTT canonical (CJ) and alternative (AJ) junction mRNA; conditions: Homo sapiens, A673 or K562 cells, 24 hours compound treatment; for pIC50: 24 h, read-out: HTT CJ (IC50, decrease in canonical junction mRNA); for AC50: read-out: HTT AJ (AC50, increase in alternative junction mRNA)
Summary of the method: (§1)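 A673 or K562 cells were treated 24 h at 37 °C with an 11-point 3-fold compound dilution series (top 10 uM, DMSO ≤0.25%). Lysates went to one-step RT-qPCR measuring canonical (CJ) and alternative-exon (AJ) junction transcripts, normalized to GAPDH, GUSB or PPIA.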

MYB mRNA = experiment: Splicing RT-qPCR assay, MYB canonical (CJ) and alternative (AJ) junction mRNA; conditions: Homo sapiens; for AC50: read-out: MYB AJ (AC50, increase in alternative junction mRNA)
Summary of the method: as §1

SMN2 mRNA = experiment: Splicing RT-qPCR gene panel, SMN2 canonical junction (CJ) mRNA; conditions: Homo sapiens, Tables 4A/4B, read-out: SMN2 (IC50, decrease in CJ mRNA, gene panel)
Summary of the method: (§2)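 Read-out: RT-qPCR of the canonical exon-exon junction transcript, ΔCt vs housekeeping gene, normalized to DMSO, RQ = 2^(−ΔΔCt), converted to percentage response. Cells, A673 or K562, were dosed 24 h at 37 °C across 11 3-fold dilutions from 10 uM.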

Target C mRNA = experiment: Splicing RT-qPCR gene panel, Target C canonical junction (CJ) mRNA; conditions: Homo sapiens, Tables 4A/4B, read-out: Target C (IC50, decrease in CJ mRNA, gene panel)
Summary of the method: as §2

HTT mRNA [2] = experiment: Splicing RT-qPCR gene panel, HTT canonical junction (CJ) mRNA; conditions: Homo sapiens, Tables 4A/4B, read-out: HTT (IC50, decrease in CJ mRNA, gene panel)
Summary of the method: as §2

[3] = 24 h, A673 or K562 cells, 24 hours compound treatment, RT-qPCR
[4] = 24 h, A673 or K562 cells, 24 hours compound treatment, RT-qPCR, read-out: MYB CJ (IC50, decrease in canonical junction mRNA)
[5] = Tables 4A/4B, canonical junction qPCR panel, read-out: MYB (IC50, decrease in CJ mRNA, gene panel)

SMILES	pIC50 (HTT mRNA [1])	AC50 (HTT mRNA [1])	AC50 (MYB mRNA; [3])	pIC50 (MYB mRNA; [4])	pIC50 (MYB mRNA; [5])	pIC50 (SMN2 mRNA)	pIC50 (Target C mRNA)	pIC50 (HTT mRNA [2])
Cc1cn2cc(NC(=O)c3ccc(N4CC5(CNC5)C4)c4cn(C)nc34)cc(F)c2n1 [Compound 242]	6.00 to 7.00	1000 to 10000 nM	100 to 1000 nM	> 7.00	> 7.00	> 7.00	5.00 to 6.00	6.00 to 7.00
Cc1cn2cc(NC(=O)c3ccc(N4CC5(CN(C)C5)C4)c4cn(C)nc34)cc(F)c2n1 [Compound 243]	6.00 to 7.00	100 to 1000 nM	< 100 nM	> 7.00	> 7.00	> 7.00	5.00 to 6.00	6.00 to 7.00
Cc1cn2cc(NC(=O)c3ccc(N(C)C4CC(C)(C)NC(C)(C)C4)c4cn(C)nc34)cc(F)c2n1 [Compound 244]	< 5.00	> 10000 nM	> 10000 nM	< 5.00	< 5.00	6.00 to 7.00	< 5.00	< 5.00
CC1=NC2C=C(NC(=O)c3ccc(N(C)C4CCN(C)CC4)c4cn(C)nc34)C=C(F)C2=N1 (stereo not drawn) [Compound 245]	6.00 to 7.00	100 to 1000 nM	100 to 1000 nM	6.00 to 7.00	6.00 to 7.00	> 7.00	6.00 to 7.00	6.00 to 7.00
Cc1cn2cc(NC(=O)c3ccc(N4CCNCC4)c4cn(C)nc34)ncc2n1 [Compound 246]	5.00 to 6.00	1000 to 10000 nM	< 100 nM	> 7.00	> 7.00	> 7.00	< 5.00	5.00 to 6.00
Cc1cn2nc(NC(=O)c3ccc(N4CCNCC4)c4cn(C)nc34)cc2c(C)n1 [Compound 247]	< 5.00	> 10000 nM	> 10000 nM	< 5.00	< 5.00	< 5.00	< 5.00	< 5.00
Cc1cn2cc(NC(=O)c3ccc(N4CCC(NC(C)(C)C)C4)c4cn(C)nc34)cc(F)c2n1 (stereo not drawn) [Compound 249]	< 5.00	> 10000 nM	100 to 1000 nM	6.00 to 7.00	6.00 to 7.00	> 7.00	< 5.00	< 5.00
Cc1cn2nc(NC(=O)c3ccc(N4CCNCC4)c4cn(C)nc34)nc2c(C)n1 [Compound 253]	< 5.00	> 10000 nM	> 10000 nM	< 5.00	< 5.00	5.00 to 6.00	< 5.00	< 5.00
Cc1cn2cc(NC(=O)c3ccc(N4C[C@H]5CC[C@@H](C4)N5)c4cc(C)oc34)cc(F)c2n1 [Compound 255]	5.00 to 6.00	1000 to 10000 nM	< 100 nM	6.00 to 7.00	6.00 to 7.00	> 7.00	< 5.00	5.00 to 6.00
Cc1cn2cc(NC(=O)c3ccc(C4CCN(C)CC4)c4cc(C)oc34)cc(F)c2n1 [Compound 256]	5.00 to 6.00	1000 to 10000 nM	100 to 1000 nM	6.00 to 7.00	6.00 to 7.00	> 7.00	< 5.00	5.00 to 6.00
CCN1CCC(c2ccc(C(=O)Nc3cc(F)c4nc(C)cn4c3)c3oc(C)cc23)CC1 [Compound 257]	5.00 to 6.00	1000 to 10000 nM	100 to 1000 nM	6.00 to 7.00	6.00 to 7.00	> 7.00	< 5.00	5.00 to 6.00
Cc1cn2cc(NC(=O)c3ccc(N4CCC(N(C)C)C4)c4cn(C)nc34)cc(F)c2n1 (stereo not drawn) [Compound 258]	5.00 to 6.00	100 to 1000 nM	< 100 nM	> 7.00	> 7.00	> 7.00	5.00 to 6.00	5.00 to 6.00
Cc1cn2cc(NC(=O)c3ccc(N4CCC(NC(C)(C)C)CC4)c4cn(C)nc34)cc(F)c2n1 [Compound 259]	5.00 to 6.00	1000 to 10000 nM	1000 to 10000 nM	6.00 to 7.00	6.00 to 7.00	> 7.00	5.00 to 6.00	5.00 to 6.00
Cc1cn2cc(NC(=O)c3ccc(N4C[C@H]5CC[C@@H](C4)N5)c4cn(C)nc34)cc(F)c2n1 [Compound 260]	6.00 to 7.00	100 to 1000 nM	< 100 nM	> 7.00	> 7.00	5.00 to 6.00	5.00 to 6.00	6.00 to 7.00
Cc1cc2c(N3CCNCC3)ccc(C(=O)Nc3ccc4cn(C)nc4c3)c2o1 [Compound 261]	< 5.00	> 10000 nM	> 10000 nM	< 5.00	< 5.00	5.00 to 6.00	< 5.00	< 5.00
Cc1cn2cc(NC(=O)c3ccc(N4CCNCC4)c4cc(C)oc34)c(C)cc2n1 [Compound 262]	5.00 to 6.00	1000 to 10000 nM	100 to 1000 nM	6.00 to 7.00	6.00 to 7.00	> 7.00	< 5.00	5.00 to 6.00
Cc1cn2cc(NC(=O)c3ccc(N4CCNCC4)c4cc(C)oc34)ncc2n1 [Compound 263]	5.00 to 6.00	1000 to 10000 nM	100 to 1000 nM	6.00 to 7.00	6.00 to 7.00	> 7.00	5.00 to 6.00	5.00 to 6.00
Cc1cn2nc(NC(=O)c3ccc(N4CCNCC4)c4cc(C)oc34)nc2c(C)n1 [Compound 264]	< 5.00	> 10000 nM	> 10000 nM	< 5.00	< 5.00	< 5.00	< 5.00	< 5.00
Cc1cn2nc(NC(=O)c3ccc(N4CCNCC4)c4cc(C)oc34)cc2c(C)n1 [Compound 265]	< 5.00	> 10000 nM	> 10000 nM	< 5.00	< 5.00	5.00 to 6.00	< 5.00	< 5.00
Cc1cn2cc(NC(=O)c3ccc(N4CCNCC4)c4cc(C)oc34)cc(Cl)c2n1 [Compound 266]	5.00 to 6.00	1000 to 10000 nM	< 100 nM	6.00 to 7.00	6.00 to 7.00	> 7.00	< 5.00	5.00 to 6.00
Cc1cn2cc(NC(=O)c3ccc(N4CCNCC4)c4cc(C)oc34)cc(C)c2n1 [Compound 267]	< 5.00	1000 to 10000 nM	100 to 1000 nM	5.00 to 6.00	5.00 to 6.00	> 7.00	< 5.00	< 5.00
